# Experimental data as given in ChEMBL document CHEMBL1201862, “PubChem BioAssay data set” (2004).
#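 Where inhibition never reached the appropriate level, the endpoint shown equals the highest concentration tested. Otherwise, values were interpolated linearly from a five-concentration, 48-hour dose response in 96-well plates. The concentration for 50% growth inhibition is given as GI50.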 The source made the active and inactive calls. Cut-off read from the data, not from the text of the source: active = GI50 up to about 1.1 µM and inactive = higher.
# Key:
# Assay in all cases: growth of human tumour cells (NCI), 48 h
# 786-0 = tested on: 786-0
# A498 = tested on: A498
# ACHN = tested on: ACHN
# BT-549 = tested on: BT-549
# CAKI-1 = tested on: CAKI-1
# CCRF-CEM = tested on: CCRF-CEM
# COLO 205 = tested on: COLO 205
# DU-145 = tested on: DU-145
# EKVX = tested on: EKVX
# HCC 2998 = tested on: HCC 2998
# HCT-116 = tested on: HCT-116
# HCT-15 = tested on: HCT-15
# HL-60 = tested on: HL-60
# HOP-62 = tested on: HOP-62
# HT-29 = tested on: HT-29
# Hs-578T = tested on: Hs-578T
# IGROV-1 = tested on: IGROV-1
# K562 = tested on: K562
# KM12 = tested on: KM12
# LOX IMVI = tested on: LOX IMVI
# M14 = tested on: M14
# MCF7 = tested on: MCF7
# MDA-MB-435 = tested on: MDA-MB-435
# MDA-N = tested on: MDA-N
# MOLT-4 = tested on: MOLT-4
# NCI-H23 = tested on: NCI-H23
# NCI-H460 = tested on: NCI-H460
# NCI/ADR-RES = tested on: NCI/ADR-RES
# OVCAR-3 = tested on: OVCAR-3
# OVCAR-4 = tested on: OVCAR-4
# OVCAR-5 = tested on: OVCAR-5
# PC-3 = tested on: PC-3
# RPMI-8226 = tested on: RPMI-8226
# RXF 393 = tested on: RXF 393
# SF-268 = tested on: SF-268
# SF-295 = tested on: SF-295
# SK-MEL-28 = tested on: SK-MEL-28
# SK-MEL-5 = tested on: SK-MEL-5
# SN12C = tested on: SN12C
# SNB-19 = tested on: SNB-19
# SR = tested on: SR
# SW-620 = tested on: SW-620
# U-251 = tested on: U-251
# UACC-257 = tested on: UACC-257
# UACC-62 = tested on: UACC-62
# UO-31 = tested on: UO-31
# A549 = tested on: A549
# HOP-92 = tested on: HOP-92
# MDA-MB-231 = tested on: MDA-MB-231
# Malme-3M = tested on: Malme-3M
# NCI-H226 = tested on: NCI-H226
# NCI-H522 = tested on: NCI-H522
# OVCAR-8 = tested on: OVCAR-8
# SK-MEL-2 = tested on: SK-MEL-2
# SK-OV-3 = tested on: SK-OV-3
# SNB-75 = tested on: SNB-75
# T47D = tested on: T47D
# SF-539 = tested on: SF-539
# TK-10 = tested on: TK-10
compound,measurement,setting,value
COC(=O)CSC(=S)Nc1nnc(NC(=S)SCOC(C)=O)n1C(=S)SCC(=O)OC,GI50,786-0,> 100 µM (inactive)
same,GI50,A498,> 100 µM (inactive)
same,GI50,ACHN,> 100 µM (inactive)
same,GI50,BT-549,> 100 µM (inactive)
same,GI50,CAKI-1,> 100 µM (inactive)
same,GI50,CCRF-CEM,> 100 µM (inactive)
same,GI50,COLO 205,> 100 µM (inactive)
same,GI50,DU-145,> 100 µM (inactive)
same,GI50,EKVX,> 100 µM (inactive)
same,GI50,HCC 2998,> 100 µM (inactive)
same,GI50,HCT-116,> 100 µM (inactive)
same,GI50,HCT-15,> 100 µM
same,GI50,HL-60,> 100 µM (inactive)
same,GI50,HOP-62,6.97 µM (inactive)
same,GI50,HT-29,> 100 µM (inactive)
same,GI50,Hs-578T,> 100 µM (inactive)
same,GI50,IGROV-1,> 100 µM (inactive)
same,GI50,K562,> 100 µM (inactive)
same,GI50,KM12,> 100 µM (inactive)
same,GI50,LOX IMVI,> 100 µM (inactive)
same,GI50,M14,> 100 µM (inactive)
same,GI50,MCF7,> 100 µM (inactive)
same,GI50,MDA-MB-435,> 100 µM (inactive)
same,GI50,MDA-N,> 100 µM (inactive)
same,GI50,MOLT-4,> 100 µM (inactive)
same,GI50,NCI-H23,> 100 µM (inactive)
same,GI50,NCI-H460,> 100 µM (inactive)
same,GI50,NCI/ADR-RES,> 100 µM (inactive)
same,GI50,OVCAR-3,> 100 µM (inactive)
same,GI50,OVCAR-4,> 100 µM (inactive)
same,GI50,OVCAR-5,> 100 µM (inactive)
same,GI50,PC-3,> 100 µM (inactive)
same,GI50,RPMI-8226,> 100 µM (inactive)
same,GI50,RXF 393,> 100 µM (inactive)
same,GI50,SF-268,> 100 µM (inactive)
same,GI50,SF-295,> 100 µM (inactive)
same,GI50,SK-MEL-28,> 100 µM (inactive)
same,GI50,SK-MEL-5,> 100 µM (inactive)
same,GI50,SN12C,> 100 µM (inactive)
same,GI50,SNB-19,> 100 µM (inactive)
same,GI50,SR,> 100 µM (inactive)
same,GI50,SW-620,> 100 µM (inactive)
same,GI50,U-251,> 100 µM (inactive)
same,GI50,UACC-257,> 100 µM (inactive)
same,GI50,UACC-62,> 100 µM (inactive)
same,GI50,UO-31,> 100 µM (inactive)
C=CC(C)(C)n1cc(C2=C(O)C(=O)C(c3c(CC=C(C)C)[nH]c4ccccc34)=C(O)C2=O)c2ccccc21,GI50,786-0,2 µM (inactive)
same,GI50,A498,1.57 µM (inactive)
same,GI50,A549,0.624 µM (active)
same,GI50,ACHN,1.56 µM (inactive)
same,GI50,BT-549,0.571 µM (active)
same,GI50,CAKI-1,2.39 µM (inactive)
same,GI50,CCRF-CEM,1.92 µM (inactive)
same,GI50,COLO 205,1.71 µM (inactive)
same,GI50,DU-145,1.55 µM (inactive)
same,GI50,EKVX,1.91 µM (inactive)
same,GI50,HCC 2998,1.04 µM (active)
same,GI50,HCT-116,1.94 µM (inactive)
same,GI50,HCT-15,1.62 µM
same,GI50,HL-60,1.86 µM (inactive)
same,GI50,HOP-62,1.25 µM (inactive)
same,GI50,HOP-92,1.46 µM (inactive)
same,GI50,HT-29,2.28 µM (inactive)
same,GI50,Hs-578T,1.43 µM (inactive)
same,GI50,IGROV-1,0.879 µM (active)
same,GI50,K562,0.476 µM (active)
same,GI50,KM12,0.979 µM (active)
same,GI50,LOX IMVI,0.998 µM (active)
same,GI50,M14,1.34 µM (inactive)
same,GI50,MDA-MB-231,1.81 µM (inactive)
same,GI50,MDA-MB-435,0.711 µM (active)
same,GI50,MDA-N,0.718 µM (active)
same,GI50,MOLT-4,1.6 µM (inactive)
same,GI50,Malme-3M,1.82 µM (inactive)
same,GI50,NCI-H226,1.53 µM (inactive)
same,GI50,NCI-H23,3.03 µM (inactive)
same,GI50,NCI-H460,1.52 µM (inactive)
same,GI50,NCI-H522,2.3 µM (inactive)
same,GI50,NCI/ADR-RES,2.47 µM (inactive)
same,GI50,OVCAR-3,1.32 µM (inactive)
same,GI50,OVCAR-4,2.19 µM (inactive)
same,GI50,OVCAR-5,2.89 µM (inactive)
same,GI50,OVCAR-8,1.3 µM (inactive)
same,GI50,PC-3,1.73 µM (inactive)
same,GI50,RPMI-8226,1.64 µM (inactive)
same,GI50,RXF 393,1.74 µM (inactive)
same,GI50,SF-268,0.548 µM (active)
same,GI50,SF-295,1.58 µM (inactive)
same,GI50,SK-MEL-28,0.575 µM (active)
same,GI50,SK-MEL-2,1.59 µM (inactive)
same,GI50,SK-MEL-5,1.87 µM (inactive)
same,GI50,SK-OV-3,2.14 µM (inactive)
same,GI50,SN12C,1.57 µM (inactive)
same,GI50,SNB-19,1.96 µM (inactive)
same,GI50,SNB-75,0.796 µM (active)
same,GI50,SR,0.745 µM (active)
same,GI50,SW-620,3.43 µM (inactive)
same,GI50,T47D,2.47 µM (inactive)
same,GI50,U-251,1.1 µM (active)
same,GI50,UACC-257,2.88 µM (inactive)
same,GI50,UACC-62,0.34 µM (active)
same,GI50,UO-31,0.67 µM (active)
COc1cccc(C(NC2=NCCC=N2)c2cc3c(cc2O)OCO3)c1O (centres undefined),GI50,786-0,12.4 µM (inactive)
same,GI50,A498,27.7 µM (inactive)
same,GI50,A549,41.1 µM (inactive)
same,GI50,ACHN,48 µM (inactive)
same,GI50,BT-549,16.7 µM (inactive)
same,GI50,CAKI-1,49.1 µM (inactive)
same,GI50,CCRF-CEM,10.8 µM (inactive)
same,GI50,COLO 205,40.1 µM (inactive)
same,GI50,DU-145,> 100 µM (inactive)
same,GI50,EKVX,> 100 µM (inactive)
same,GI50,HCC 2998,19.9 µM (inactive)
same,GI50,HCT-116,24.1 µM (inactive)
same,GI50,HCT-15,14.1 µM
same,GI50,HL-60,8.93 µM (inactive)
same,GI50,HOP-62,25.7 µM (inactive)
same,GI50,HOP-92,23.7 µM (inactive)
same,GI50,HT-29,38.5 µM (inactive)
same,GI50,Hs-578T,25.4 µM (inactive)
same,GI50,IGROV-1,29.4 µM (inactive)
same,GI50,K562,17.9 µM (inactive)
same,GI50,KM12,32.8 µM (inactive)
same,GI50,LOX IMVI,19.5 µM (inactive)
same,GI50,M14,27.4 µM (inactive)
same,GI50,MCF7,18 µM (inactive)
same,GI50,MDA-MB-231,23.6 µM (inactive)
same,GI50,MDA-MB-435,29 µM (inactive)
same,GI50,MDA-N,27.2 µM (inactive)
same,GI50,MOLT-4,23.6 µM (inactive)
same,GI50,Malme-3M,38.1 µM (inactive)
same,GI50,NCI-H226,43.5 µM (inactive)
same,GI50,NCI-H23,32.1 µM (inactive)
same,GI50,NCI-H460,29.8 µM (inactive)
same,GI50,NCI-H522,15.8 µM (inactive)
same,GI50,OVCAR-3,22 µM (inactive)
same,GI50,OVCAR-5,36.6 µM (inactive)
same,GI50,OVCAR-8,10.4 µM (inactive)
same,GI50,PC-3,29.1 µM (inactive)
same,GI50,RPMI-8226,21.5 µM (inactive)
same,GI50,RXF 393,23.8 µM (inactive)
same,GI50,SF-268,34.8 µM (inactive)
same,GI50,SF-295,42.2 µM (inactive)
same,GI50,SF-539,25.8 µM (inactive)
same,GI50,SK-MEL-28,32.7 µM (inactive)
same,GI50,SK-MEL-2,24.4 µM (inactive)
same,GI50,SK-MEL-5,38.8 µM (inactive)
same,GI50,SK-OV-3,94 µM (inactive)
same,GI50,SN12C,19.6 µM (inactive)
same,GI50,SNB-19,46.1 µM (inactive)
same,GI50,SNB-75,23.3 µM (inactive)
same,GI50,SR,11.6 µM (inactive)
same,GI50,SW-620,20.4 µM (inactive)
same,GI50,T47D,25.5 µM (inactive)
same,GI50,TK-10,76.9 µM (inactive)
same,GI50,U-251,17.7 µM (inactive)
same,GI50,UACC-257,34.4 µM (inactive)
same,GI50,UACC-62,23.3 µM (inactive)
same,GI50,UO-31,35.6 µM (inactive)
